Assay results: PubChem BioAssay AID624355 (The Scripps Research Institute Molecular Screening Center, 2012)
The source made the active and inactive calls.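 Rule for the calls: active = inhibition of at least 50% in a panel; inactive = the rest.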

Legend:
Assay in all cases: GPCR and transporter radioligand displacement panel – cell-based, radioligand binding, single concentration, selectivity assay for STAT3/NF-kB dual inhibitor project, profiling panel (AID 624355)
[1] = target: 5-hydroxytryptamine receptor 1A (Homo sapiens) (UniProt P08908); settings: Ricerca radioligand binding panel, receptors/transporters; Serotonin (5-Hydroxytryptamine) 5-HT1A; at 10 µM; stronger effect = higher value
[2] = target: 5-hydroxytryptamine receptor 2B (Homo sapiens) (UniProt P41595); settings: Ricerca radioligand binding panel, receptors/transporters; Serotonin (5-Hydroxytryptamine) 5-HT2B; at 10 µM; stronger effect = higher value
[3] = tested on: Adenosine A1; settings: Ricerca radioligand binding panel, receptors/transporters, at 10 µM, stronger effect = higher value
[4] = tested on: Adenosine A2A; settings: Ricerca radioligand binding panel, receptors/transporters, at 10 µM, stronger effect = higher value
[5] = tested on: Adenosine A3; settings: Ricerca radioligand binding panel, receptors/transporters, at 10 µM, stronger effect = higher value
[6] = tested on: Adrenergic B1; settings: Ricerca radioligand binding panel, receptors/transporters, at 10 µM, stronger effect = higher value
[7] = tested on: Adrenergic a1A; settings: Ricerca radioligand binding panel, receptors/transporters, at 10 µM, stronger effect = higher value
[8] = tested on: Adrenergic a1B; settings: Ricerca radioligand binding panel, receptors/transporters, at 10 µM, stronger effect = higher value
[9] = tested on: Adrenergic a1D; settings: Ricerca radioligand binding panel, receptors/transporters, at 10 µM, stronger effect = higher value
[10] = target: Alpha-2A adrenergic receptor (Homo sapiens) (UniProt P08913); settings: Ricerca radioligand binding panel, receptors/transporters; Adrenergic a2A; at 10 µM; stronger effect = higher value
[11] = tested on: Androgen (Testosterone) AR; settings: Ricerca radioligand binding panel, receptors/transporters, at 10 µM, stronger effect = higher value
[12] = target: Beta-2 adrenergic receptor (Homo sapiens) (UniProt P07550); settings: Ricerca radioligand binding panel, receptors/transporters; Adrenergic B2; at 10 µM; stronger effect = higher value
[13] = tested on: Bradykinin B1; settings: Ricerca radioligand binding panel, receptors/transporters, at 10 µM, stronger effect = higher value
[14] = tested on: Bradykinin B2; settings: Ricerca radioligand binding panel, receptors/transporters, at 10 µM, stronger effect = higher value
[15] = tested on: Calcium Channel L-Type, Benzothiazepine; settings: Ricerca radioligand binding panel, receptors/transporters, Benzothiazepine site, at 10 µM, stronger effect = higher value
[16] = tested on: Calcium Channel L-Type, Dihydropyridine; settings: Ricerca radioligand binding panel, receptors/transporters, Dihydropyridine site, at 10 µM, stronger effect = higher value
[17] = tested on: Calcium Channel N-Type; settings: Ricerca radioligand binding panel, receptors/transporters, at 10 µM, stronger effect = higher value
[18] = tested on: Cannabinoid CB1; settings: Ricerca radioligand binding panel, receptors/transporters, at 10 µM, stronger effect = higher value
[19] = target: D(1A) dopamine receptor (Homo sapiens) (UniProt P21728); settings: Ricerca radioligand binding panel, receptors/transporters; Dopamine D1; at 10 µM; stronger effect = higher value
[20] = target: D(3) dopamine receptor (Homo sapiens) (UniProt P35462); settings: Ricerca radioligand binding panel, receptors/transporters; Dopamine D3; at 10 µM; stronger effect = higher value
[21] = target: Delta-type opioid receptor (Homo sapiens) (UniProt P41143); settings: Ricerca radioligand binding panel, receptors/transporters; Opiate (OP1, DOP); at 10 µM; stronger effect = higher value
[22] = tested on: Dopamine D2S; settings: Ricerca radioligand binding panel, receptors/transporters, at 10 µM, stronger effect = higher value
[23] = tested on: Dopamine D4.2; settings: Ricerca radioligand binding panel, receptors/transporters, at 10 µM, stronger effect = higher value
[24] = tested on: Endothelin ETA; settings: Ricerca radioligand binding panel, receptors/transporters, at 10 µM, stronger effect = higher value
[25] = tested on: Endothelin ETB; settings: Ricerca radioligand binding panel, receptors/transporters, at 10 µM, stronger effect = higher value
[26] = tested on: Epidermal Growth Factor (EGF); settings: Ricerca radioligand binding panel, receptors/transporters, at 10 µM, stronger effect = higher value
[27] = target: Estrogen receptor (Homo sapiens) (UniProt P03372); settings: Ricerca radioligand binding panel, receptors/transporters; Estrogen Era; at 10 µM; stronger effect = higher value
[28] = tested on: GABAA, Flunitrazepam, Central; settings: Ricerca radioligand binding panel, receptors/transporters, Flunitrazepam site, at 10 µM, stronger effect = higher value
[29] = tested on: GABAA, Muscimol, Central; settings: Ricerca radioligand binding panel, receptors/transporters, Muscimol site, at 10 µM, stronger effect = higher value
[30] = tested on: GABAB1A; settings: Ricerca radioligand binding panel, receptors/transporters, at 10 µM, stronger effect = higher value
[31] = target: Glucocorticoid receptor (Homo sapiens) (UniProt P04150); settings: Ricerca radioligand binding panel, receptors/transporters, at 10 µM, stronger effect = higher value
[32] = tested on: Glutamate, Kainate; settings: Ricerca radioligand binding panel, receptors/transporters, at 10 µM, stronger effect = higher value
[33] = tested on: Glutamate, NMDA, Agonism; settings: Ricerca radioligand binding panel, receptors/transporters, Agonism site, at 10 µM, stronger effect = higher value
[34] = tested on: Glutamate, NMDA, Glycine; settings: Ricerca radioligand binding panel, receptors/transporters, Glycine site, at 10 µM, stronger effect = higher value
[35] = tested on: Glutamate, NMDA, Phencyclidine; settings: Ricerca radioligand binding panel, receptors/transporters, Phencyclidine site, at 10 µM, stronger effect = higher value
[36] = tested on: Histamine H1; settings: Ricerca radioligand binding panel, receptors/transporters, at 10 µM, stronger effect = higher value
[37] = tested on: Histamine H2; settings: Ricerca radioligand binding panel, receptors/transporters, at 10 µM, stronger effect = higher value
[38] = tested on: Histamine H3; settings: Ricerca radioligand binding panel, receptors/transporters, at 10 µM, stronger effect = higher value
[39] = tested on: Imidazoline I2, Central; settings: Ricerca radioligand binding panel, receptors/transporters, at 10 µM, stronger effect = higher value
[40] = tested on: Interleukin IL-1; settings: Ricerca radioligand binding panel, receptors/transporters, at 10 µM, stronger effect = higher value
[41] = target: Kappa-type opioid receptor (Homo sapiens) (UniProt P41145); settings: Ricerca radioligand binding panel, receptors/transporters; Opiate (OP2, KOP); at 10 µM; stronger effect = higher value
[42] = tested on: Leukotriene, Cysteinyl CysLT1; settings: Ricerca radioligand binding panel, receptors/transporters, at 10 µM, stronger effect = higher value
[43] = tested on: Melatonin MT1; settings: Ricerca radioligand binding panel, receptors/transporters, at 10 µM, stronger effect = higher value
[44] = target: Muscarinic acetylcholine receptor M1 (Homo sapiens) (UniProt P11229); settings: Ricerca radioligand binding panel, receptors/transporters, at 10 µM, stronger effect = higher value
[45] = target: Muscarinic acetylcholine receptor M2 (Homo sapiens) (UniProt P08172); settings: Ricerca radioligand binding panel, receptors/transporters, at 10 µM, stronger effect = higher value
[46] = target: Muscarinic acetylcholine receptor M3 (Homo sapiens) (UniProt P20309); settings: Ricerca radioligand binding panel, receptors/transporters, at 10 µM, stronger effect = higher value
[47] = target: Neuropeptide Y receptor type 1 (Homo sapiens) (UniProt P25929); settings: Ricerca radioligand binding panel, receptors/transporters; Neuropeptide Y Y1; at 10 µM; stronger effect = higher value
[48] = target: Neuropeptide Y receptor type 2 (Homo sapiens) (UniProt P49146); settings: Ricerca radioligand binding panel, receptors/transporters; Neuropeptide Y Y2; at 10 µM; stronger effect = higher value
[49] = tested on: Nicotinic Acetylcholine; settings: Ricerca radioligand binding panel, receptors/transporters, at 10 µM, stronger effect = higher value
[50] = tested on: Opiate (OP3, MOP); settings: Ricerca radioligand binding panel, receptors/transporters, at 10 µM, stronger effect = higher value
[51] = tested on: Phorbol Ester; settings: Ricerca radioligand binding panel, receptors/transporters, at 10 µM, stronger effect = higher value
[52] = target: Platelet-activating factor receptor (Homo sapiens) (UniProt P25105); settings: Ricerca radioligand binding panel, receptors/transporters; Platelet Activating Factor (PAF); at 10 µM; stronger effect = higher value
[53] = tested on: Potassium Channel KATP; settings: Ricerca radioligand binding panel, receptors/transporters, at 10 µM, stronger effect = higher value
[54] = tested on: Prostanoid EP4; settings: Ricerca radioligand binding panel, receptors/transporters, at 10 µM, stronger effect = higher value
[55] = tested on: Purinergic P2X; settings: Ricerca radioligand binding panel, receptors/transporters, at 10 µM, stronger effect = higher value
[56] = tested on: Purinergic P2Y; settings: Ricerca radioligand binding panel, receptors/transporters, at 10 µM, stronger effect = higher value
[57] = tested on: Rolipram; settings: Ricerca radioligand binding panel, receptors/transporters, at 10 µM, stronger effect = higher value
[58] = tested on: Serotonin (5-Hydroxytryptamine) 5-HT3; settings: Ricerca radioligand binding panel, receptors/transporters, at 10 µM, stronger effect = higher value
[59] = tested on: Sigma1; settings: Ricerca radioligand binding panel, receptors/transporters, at 10 µM, stronger effect = higher value
[60] = tested on: Tachykinin NK1; settings: Ricerca radioligand binding panel, receptors/transporters, at 10 µM, stronger effect = higher value
[61] = tested on: Thyroid Hormone; settings: Ricerca radioligand binding panel, receptors/transporters, at 10 µM, stronger effect = higher value
[62] = tested on: Transporter, Dopamine (DAT); settings: Ricerca radioligand binding panel, receptors/transporters, at 10 µM, stronger effect = higher value
[63] = tested on: Transporter, GABA; settings: Ricerca radioligand binding panel, receptors/transporters, at 10 µM, stronger effect = higher value
[64] = tested on: Transporter, Norepinephrine (NET); settings: Ricerca radioligand binding panel, receptors/transporters, at 10 µM, stronger effect = higher value
[65] = tested on: Transporter, Serotonin (5-Hydroxytryptamine); settings: Ricerca radioligand binding panel, receptors/transporters, at 10 µM, stronger effect = higher value
[66] = tested on: Voltage-dependent L-type calcium channel subunit beta-4 (Rattus norvegicus) + Pro-epidermal growth factor (Homo sapiens) + Estrogen receptor (Homo sapiens) + Glucocorticoid receptor (Homo sapiens) + 5-hydroxytryptamine receptor 1A (Homo sapiens) + Alpha-2A adrenergic receptor (Homo sapiens) + Adenosine receptor A3 (Homo sapiens) + Androgen receptor (Homo sapiens) + Muscarinic acetylcholine receptor M1 (Homo sapiens) + D(4) dopamine receptor (Homo sapiens) + Alpha-2A adrenergic receptor (Rattus norvegicus) + Sodium- and chloride-dependent GABA transporter 1 (Rattus norvegicus) + Endothelin receptor type B (Homo sapiens) + Histamine H2 receptor (Homo sapiens) + Endothelin-1 receptor (Homo sapiens) + Neuropeptide Y receptor type 1 (Homo sapiens) + B2 bradykinin receptor (Homo sapiens) + Sodium-dependent serotonin transporter (Homo sapiens) + Histamine H1 receptor (Homo sapiens) + Mu-type opioid receptor (Homo sapiens) + D(3) dopamine receptor (Homo sapiens) + Delta-type opioid receptor (Homo sapiens) + Kappa-type opioid receptor (Homo sapiens) + Glutamate receptor ionotropic, kainate 3 (Rattus norvegicus) + 5-hydroxytryptamine receptor 3A (Homo sapiens) + Melatonin receptor type 1A (Homo sapiens) + Neuropeptide Y receptor type 2 (Homo sapiens) + P2Y purinoceptor 1 (Rattus norvegicus) + Thyroid hormone receptor alpha (Rattus norvegicus) + Glutamate receptor ionotropic, NMDA 2B (Rattus norvegicus) + Sodium-dependent dopamine transporter (Homo sapiens) + Protein kinase C zeta type …; settings: Ricerca radioligand binding panel, receptors/transporters; at 10 µM; stronger effect = higher value
[67] = target: Voltage-gated inwardly rectifying potassium channel KCNH2 (Homo sapiens) (UniProt Q12809); settings: Ricerca radioligand binding panel, receptors/transporters; Potassium Channel hERG; at 10 µM; stronger effect = higher value
Voltage-gated inwardly rectifying potassium channel KCNH2 (Homo sapiens), sequence (Q12809 whole entry, looked up): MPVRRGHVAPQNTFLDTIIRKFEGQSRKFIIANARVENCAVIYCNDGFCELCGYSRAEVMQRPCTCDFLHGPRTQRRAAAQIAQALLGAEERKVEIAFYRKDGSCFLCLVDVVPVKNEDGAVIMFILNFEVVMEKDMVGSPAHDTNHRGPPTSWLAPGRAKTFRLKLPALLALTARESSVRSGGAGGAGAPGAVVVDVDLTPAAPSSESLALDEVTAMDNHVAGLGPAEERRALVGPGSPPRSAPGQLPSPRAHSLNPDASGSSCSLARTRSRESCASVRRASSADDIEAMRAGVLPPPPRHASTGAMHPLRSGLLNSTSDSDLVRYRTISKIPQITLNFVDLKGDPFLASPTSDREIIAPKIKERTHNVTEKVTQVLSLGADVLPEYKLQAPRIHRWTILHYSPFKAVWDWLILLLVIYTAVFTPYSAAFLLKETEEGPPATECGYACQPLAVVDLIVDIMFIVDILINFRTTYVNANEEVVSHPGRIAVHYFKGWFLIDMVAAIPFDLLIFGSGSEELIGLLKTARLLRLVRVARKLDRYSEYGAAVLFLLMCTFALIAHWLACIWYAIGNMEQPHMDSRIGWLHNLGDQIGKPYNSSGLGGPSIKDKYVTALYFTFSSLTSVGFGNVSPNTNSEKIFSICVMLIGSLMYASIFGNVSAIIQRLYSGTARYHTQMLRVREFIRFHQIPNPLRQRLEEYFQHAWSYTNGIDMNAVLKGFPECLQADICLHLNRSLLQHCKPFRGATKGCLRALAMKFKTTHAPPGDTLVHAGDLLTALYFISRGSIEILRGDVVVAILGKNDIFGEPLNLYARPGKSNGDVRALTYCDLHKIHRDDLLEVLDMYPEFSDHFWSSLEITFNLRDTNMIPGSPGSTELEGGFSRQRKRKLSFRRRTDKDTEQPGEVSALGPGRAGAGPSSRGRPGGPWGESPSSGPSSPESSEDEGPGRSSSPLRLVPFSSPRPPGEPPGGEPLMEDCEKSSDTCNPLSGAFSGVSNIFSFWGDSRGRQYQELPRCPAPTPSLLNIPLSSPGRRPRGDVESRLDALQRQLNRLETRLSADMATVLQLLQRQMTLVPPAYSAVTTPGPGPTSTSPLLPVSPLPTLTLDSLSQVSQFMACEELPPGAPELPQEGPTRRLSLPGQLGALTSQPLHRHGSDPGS

Muscarinic acetylcholine receptor M1 (Homo sapiens), sequence (P11229 whole entry, looked up): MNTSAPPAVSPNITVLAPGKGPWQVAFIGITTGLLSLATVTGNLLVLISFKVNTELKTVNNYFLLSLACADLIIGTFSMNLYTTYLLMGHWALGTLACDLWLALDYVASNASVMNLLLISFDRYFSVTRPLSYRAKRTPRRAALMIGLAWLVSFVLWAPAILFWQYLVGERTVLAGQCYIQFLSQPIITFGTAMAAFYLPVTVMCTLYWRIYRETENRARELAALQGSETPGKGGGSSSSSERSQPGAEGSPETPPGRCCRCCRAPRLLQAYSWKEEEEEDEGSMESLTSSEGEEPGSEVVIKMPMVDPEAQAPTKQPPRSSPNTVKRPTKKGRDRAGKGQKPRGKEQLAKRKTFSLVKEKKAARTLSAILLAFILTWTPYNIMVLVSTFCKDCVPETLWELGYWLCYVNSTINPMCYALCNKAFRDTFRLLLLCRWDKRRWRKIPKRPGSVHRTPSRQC
Glucocorticoid receptor (Homo sapiens), sequence (P04150 whole entry, looked up): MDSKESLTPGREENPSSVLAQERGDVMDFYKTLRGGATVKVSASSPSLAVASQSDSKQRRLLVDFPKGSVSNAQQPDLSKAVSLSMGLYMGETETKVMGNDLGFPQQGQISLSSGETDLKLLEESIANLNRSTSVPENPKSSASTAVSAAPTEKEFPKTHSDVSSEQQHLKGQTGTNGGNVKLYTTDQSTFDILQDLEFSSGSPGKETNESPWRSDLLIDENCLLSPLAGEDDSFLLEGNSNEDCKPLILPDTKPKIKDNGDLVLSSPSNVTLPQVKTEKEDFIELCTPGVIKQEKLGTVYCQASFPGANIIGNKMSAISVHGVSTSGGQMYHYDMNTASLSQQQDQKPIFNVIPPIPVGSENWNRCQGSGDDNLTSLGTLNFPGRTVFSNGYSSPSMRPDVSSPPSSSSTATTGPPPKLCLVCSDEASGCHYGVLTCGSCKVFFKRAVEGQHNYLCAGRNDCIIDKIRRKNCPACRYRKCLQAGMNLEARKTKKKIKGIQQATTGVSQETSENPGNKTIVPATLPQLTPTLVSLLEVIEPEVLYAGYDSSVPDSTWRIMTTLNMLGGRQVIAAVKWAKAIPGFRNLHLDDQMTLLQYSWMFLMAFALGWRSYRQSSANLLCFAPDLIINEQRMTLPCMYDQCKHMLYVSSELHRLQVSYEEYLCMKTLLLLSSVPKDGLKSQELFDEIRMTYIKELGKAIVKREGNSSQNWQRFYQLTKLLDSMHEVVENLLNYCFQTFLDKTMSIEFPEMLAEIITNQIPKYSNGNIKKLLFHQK
Alpha-2A adrenergic receptor (Homo sapiens), sequence (P08913 whole entry, looked up): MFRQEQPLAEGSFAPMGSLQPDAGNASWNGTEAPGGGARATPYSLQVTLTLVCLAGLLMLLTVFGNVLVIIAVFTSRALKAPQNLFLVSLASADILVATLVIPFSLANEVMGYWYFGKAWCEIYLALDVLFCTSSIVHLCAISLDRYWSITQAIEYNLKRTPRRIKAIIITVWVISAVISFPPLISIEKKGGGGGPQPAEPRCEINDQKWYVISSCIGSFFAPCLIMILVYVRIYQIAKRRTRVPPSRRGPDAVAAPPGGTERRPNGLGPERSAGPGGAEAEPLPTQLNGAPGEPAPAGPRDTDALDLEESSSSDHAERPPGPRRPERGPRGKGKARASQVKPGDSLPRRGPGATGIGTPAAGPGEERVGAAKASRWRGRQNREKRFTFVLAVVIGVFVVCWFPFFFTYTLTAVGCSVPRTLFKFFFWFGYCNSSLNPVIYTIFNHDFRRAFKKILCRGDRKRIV
D(3) dopamine receptor (Homo sapiens), sequence (P35462 whole entry, looked up): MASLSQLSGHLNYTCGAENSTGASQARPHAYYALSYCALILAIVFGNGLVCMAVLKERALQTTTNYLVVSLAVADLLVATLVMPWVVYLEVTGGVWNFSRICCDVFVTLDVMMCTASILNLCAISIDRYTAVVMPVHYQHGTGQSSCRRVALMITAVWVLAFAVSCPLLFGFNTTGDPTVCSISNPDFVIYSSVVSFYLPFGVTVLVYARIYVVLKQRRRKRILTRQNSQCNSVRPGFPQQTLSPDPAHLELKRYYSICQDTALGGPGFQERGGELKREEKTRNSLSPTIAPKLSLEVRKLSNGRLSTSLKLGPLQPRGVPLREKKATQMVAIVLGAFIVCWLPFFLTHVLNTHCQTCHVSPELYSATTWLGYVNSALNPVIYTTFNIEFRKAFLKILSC
Platelet-activating factor receptor (Homo sapiens), sequence (P25105 whole entry, looked up): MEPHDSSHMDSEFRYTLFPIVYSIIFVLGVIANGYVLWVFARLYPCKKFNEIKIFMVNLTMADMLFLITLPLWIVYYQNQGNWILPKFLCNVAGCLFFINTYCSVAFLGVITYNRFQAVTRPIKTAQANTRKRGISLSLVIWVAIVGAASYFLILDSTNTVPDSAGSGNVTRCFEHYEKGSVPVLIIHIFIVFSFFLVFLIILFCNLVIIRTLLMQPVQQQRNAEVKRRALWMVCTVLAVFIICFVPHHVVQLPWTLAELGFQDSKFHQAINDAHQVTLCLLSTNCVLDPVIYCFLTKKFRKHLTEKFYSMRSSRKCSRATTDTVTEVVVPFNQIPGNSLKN
Neuropeptide Y receptor type 1 (Homo sapiens), sequence (P25929 whole entry, looked up): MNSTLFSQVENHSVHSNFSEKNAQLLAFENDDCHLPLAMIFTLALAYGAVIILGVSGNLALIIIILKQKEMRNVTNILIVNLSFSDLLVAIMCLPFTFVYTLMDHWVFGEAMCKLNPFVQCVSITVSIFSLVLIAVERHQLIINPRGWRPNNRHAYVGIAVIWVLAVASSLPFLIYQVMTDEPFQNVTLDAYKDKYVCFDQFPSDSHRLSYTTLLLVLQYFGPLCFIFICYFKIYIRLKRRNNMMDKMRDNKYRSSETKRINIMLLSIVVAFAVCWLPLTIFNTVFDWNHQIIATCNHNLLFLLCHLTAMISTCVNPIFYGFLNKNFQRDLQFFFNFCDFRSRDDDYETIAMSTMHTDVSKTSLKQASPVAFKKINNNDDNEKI
Delta-type opioid receptor (Homo sapiens), sequence (P41143 whole entry, looked up): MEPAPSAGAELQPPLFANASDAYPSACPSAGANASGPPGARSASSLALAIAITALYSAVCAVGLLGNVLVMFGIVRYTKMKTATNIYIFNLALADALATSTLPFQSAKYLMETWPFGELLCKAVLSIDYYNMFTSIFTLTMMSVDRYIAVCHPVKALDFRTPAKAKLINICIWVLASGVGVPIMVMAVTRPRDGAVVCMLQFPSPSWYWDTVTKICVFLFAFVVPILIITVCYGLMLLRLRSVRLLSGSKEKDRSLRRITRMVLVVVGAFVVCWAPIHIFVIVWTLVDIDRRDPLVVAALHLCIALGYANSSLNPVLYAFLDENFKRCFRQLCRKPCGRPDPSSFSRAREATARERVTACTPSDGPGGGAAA
Beta-2 adrenergic receptor (Homo sapiens), sequence (P07550 whole entry, looked up): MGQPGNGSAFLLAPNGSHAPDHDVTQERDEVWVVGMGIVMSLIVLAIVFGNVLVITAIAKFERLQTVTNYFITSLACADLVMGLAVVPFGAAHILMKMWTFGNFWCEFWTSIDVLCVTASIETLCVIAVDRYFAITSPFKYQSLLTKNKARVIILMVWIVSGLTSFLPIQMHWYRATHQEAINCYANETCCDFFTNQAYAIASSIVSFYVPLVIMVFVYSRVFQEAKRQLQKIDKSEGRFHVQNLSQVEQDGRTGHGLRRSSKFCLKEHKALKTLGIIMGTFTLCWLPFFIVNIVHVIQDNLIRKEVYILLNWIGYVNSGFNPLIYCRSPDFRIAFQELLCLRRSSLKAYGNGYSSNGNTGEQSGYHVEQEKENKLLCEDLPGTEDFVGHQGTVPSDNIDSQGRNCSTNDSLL

COc1ccc(CC2CCN(c3ncnc4sccc34)CC2)cc1
inhibition [1]: 1% (inactive) | inhibition [2]: 47% (inactive) | inhibition [3]: 52% | inhibition [4]: 31% (inactive) | inhibition [5]: 23% (inactive) | inhibition [6]: 23% (inactive) | inhibition [7]: 28% (inactive) | inhibition [8]: 6% (inactive) | inhibition [9]: 19% (inactive) | inhibition [10]: 56% | inhibition [11]: 11% (inactive) | inhibition [12]: 10% (inactive) | inhibition [13]: 4% (inactive) | inhibition [14]: 8% (inactive) | inhibition [15]: 8% (inactive) | inhibition [16]: 47% (inactive) | inhibition [17]: -2% (inactive) | inhibition [18]: 28% (inactive) | inhibition [19]: 7% (inactive) | inhibition [20]: 51% | inhibition [21]: 27% (inactive) | inhibition [22]: 11% (inactive) | inhibition [23]: 4% (inactive) | inhibition [24]: 21% (inactive) | inhibition [25]: 6% (inactive) | inhibition [26]: 2% (inactive) | inhibition [27]: 1% (inactive) | inhibition [28]: -6% (inactive) | inhibition [29]: 58% | inhibition [30]: 10% (inactive) | inhibition [31]: 15% (inactive) | inhibition [32]: -3% (inactive) | inhibition [33]: 9% (inactive) | inhibition [34]: 1% (inactive) | inhibition [35]: 13% (inactive) | inhibition [36]: 8% (inactive) | inhibition [37]: -8% (inactive) | inhibition [38]: -2% (inactive) | inhibition [39]: 15% (inactive) | inhibition [40]: 9% (inactive) | inhibition [41]: 69% | inhibition [42]: -3% (inactive) | inhibition [43]: 68% | inhibition [44]: -5% (inactive) | inhibition [45]: 4% (inactive) | inhibition [46]: 11% (inactive) | inhibition [47]: 2% (inactive) | inhibition [48]: 11% (inactive) | inhibition [49]: -26% (inactive) | inhibition [50]: 55% | inhibition [51]: 10% (inactive) | inhibition [52]: 30% (inactive) | inhibition [53]: 18% (inactive) | inhibition [54]: 27% (inactive) | inhibition [55]: -12% (inactive) | inhibition [56]: -7% (inactive) | inhibition [57]: 12% (inactive) | inhibition [58]: -13% (inactive) | inhibition [59]: 13% (inactive) | inhibition [60]: 6% (inactive) | inhibition [61]: 9% (inactive) | inhibition [62]: 98% | inhibition [63]: 1% (inactive) | inhibition [64]: 80% | inhibition [65]: 44% (inactive) | inhibition [66]: 3% (inactive) | inhibition [67]: 28% (inactive)
